pIC50: −log10 of the molar value.
Tested on: 439559-082-T-J2-PDC spheroid viability
Experiment: Anticancer human tumor 439559-082-T-J2-PDC patient-derived colon adenocarcinoma cell line growth inhibition [POLQ]
Conditions: spheroids with HUVEC and MSC; for pIC50: curve of first compound; for viability, T/C: stronger effect = lower value
Method in brief: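 PDC + HUVEC + MSC complex spheroids; POLQ inhibitors ± partner drugs; top conc. at/near clinical Cmax, else 10 microM (SN-38 1 microM), half-log dilutions; 37 degrees C, 5% CO2.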

[1] = second compound 0.0316 µM, first compound 0.0316 µM
[2] = second compound 0.0316 µM, first compound 0.1 µM
[3] = second compound 0.0316 µM, first compound 0.316 µM
[4] = second compound 0.0316 µM, first compound 1 µM
[5] = second compound 0.0316 µM, first compound 3.16 µM
[6] = second compound 0.0316 µM, first compound 10 µM
[7] = second compound 0.1 µM, first compound 0.0316 µM
[8] = second compound 0.1 µM, first compound 0.1 µM
[9] = second compound 0.1 µM, first compound 0.316 µM
[10] = second compound 0.1 µM, first compound 1 µM
[11] = second compound 0.1 µM, first compound 3.16 µM
[12] = second compound 0.1 µM, first compound 10 µM
[13] = second compound 0.316 µM, first compound 0.0316 µM
[14] = second compound 0.316 µM, first compound 0.1 µM
[15] = second compound 0.316 µM, first compound 0.316 µM
[16] = second compound 0.316 µM, first compound 1 µM
[17] = second compound 0.316 µM, first compound 3.16 µM
[18] = second compound 0.316 µM, first compound 10 µM
[19] = second compound 1 µM, first compound 0.0316 µM
[20] = second compound 1 µM, first compound 0.1 µM
[21] = second compound 1 µM, first compound 0.316 µM
[22] = second compound 1 µM, first compound 1 µM
[23] = second compound 1 µM, first compound 3.16 µM
[24] = second compound 1 µM, first compound 10 µM
[25] = second compound 3.16 µM, first compound 0.0316 µM
[26] = second compound 3.16 µM, first compound 0.1 µM
[27] = second compound 3.16 µM, first compound 0.316 µM
[28] = second compound 3.16 µM, first compound 1 µM
[29] = second compound 3.16 µM, first compound 3.16 µM
[30] = second compound 3.16 µM, first compound 10 µM
[31] = second compound 10 µM, first compound 0.0316 µM
[32] = second compound 10 µM, first compound 0.1 µM
[33] = second compound 10 µM, first compound 0.316 µM
[34] = second compound 10 µM, first compound 1 µM
[35] = second compound 10 µM, first compound 3.16 µM
[36] = second compound 10 µM, first compound 10 µM
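Also: spheroids exposed to compounds for seven days before readout.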
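For viability, T/C in this document: 100% = DMSO vehicle control viability.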

O=C(Nc1ccc(O)c(NS(=O)(=O)c2ccc(F)cc2)c1)c1ccc(-c2ccccc2)cc1 + COC1C(OC(N)=O)C(O)C(Oc2ccc3c(O)c(NC(=O)c4ccc(O)c(CC=C(C)C)c4)c(=O)oc3c2C)OC1(C)C
pIC50 (second compound 0.0316 µM): < 5.00 | pIC50 (second compound 0.1 µM): < 5.00 | pIC50 (second compound 0.316 µM): < 5.00 | pIC50 (second compound 1 µM): < 5.00 | pIC50 (second compound 3.16 µM): < 5.00 | pIC50 (second compound 10 µM): < 5.00 | viability, T/C [1]: 93.1% | viability, T/C [2]: 94.8% | viability, T/C [3]: 94.1% | viability, T/C [4]: 97.9% | viability, T/C [5]: 106% | viability, T/C [6]: 101% | viability, T/C [7]: 98.8% | viability, T/C [8]: 99.4% | viability, T/C [9]: 102% | viability, T/C [10]: 107% | viability, T/C [11]: 103% | viability, T/C [12]: 97.3% | viability, T/C [13]: 99.3% | viability, T/C [14]: 99.9% | viability, T/C [15]: 99.8% | viability, T/C [16]: 97% | viability, T/C [17]: 104% | viability, T/C [18]: 102% | viability, T/C [19]: 102% | viability, T/C [20]: 98.4% | viability, T/C [21]: 93.5% | viability, T/C [22]: 103% | viability, T/C [23]: 104% | viability, T/C [24]: 89.8% | viability, T/C [25]: 107% | viability, T/C [26]: 93.2% | viability, T/C [27]: 92.3% | viability, T/C [28]: 96.5% | viability, T/C [29]: 99.8% | viability, T/C [30]: 98.3% | viability, T/C [31]: 97.2% | viability, T/C [32]: 98.7% | viability, T/C [33]: 102% | viability, T/C [34]: 103% | viability, T/C [35]: 101% | viability, T/C [36]: 104%

CC1COCCN1c1cc(C2(O)CC3CCC(C2)O3)c2cnn(-c3ccn[nH]3)c2n1 (stereo unspecified) + Cc1cccc(N(C)C(=O)C2C(O)CCN2c2nc(C)cc(C(F)(F)F)c2C#N)c1
pIC50 (second compound 0.0316 µM): 5.42 | pIC50 (second compound 0.1 µM): 5.27 | pIC50 (second compound 0.316 µM): 5.50 | pIC50 (second compound 1 µM): 5.30 | pIC50 (second compound 3.16 µM): 5.54 | pIC50 (second compound 10 µM): 5.53 | viability, T/C [1]: 96.4% | viability, T/C [2]: 79.1% | viability, T/C [3]: 71.1% | viability, T/C [4]: 60.9% | viability, T/C [5]: 47.7% | viability, T/C [6]: 46.4% | viability, T/C [7]: 95.6% | viability, T/C [8]: 86.1% | viability, T/C [9]: 66% | viability, T/C [10]: 60.1% | viability, T/C [11]: 49.3% | viability, T/C [12]: 49% | viability, T/C [13]: 94.5% | viability, T/C [14]: 79.4% | viability, T/C [15]: 70.2% | viability, T/C [16]: 57% | viability, T/C [17]: 48.4% | viability, T/C [18]: 46.6% | viability, T/C [19]: 95.5% | viability, T/C [20]: 78.4% | viability, T/C [21]: 69.3% | viability, T/C [22]: 61% | viability, T/C [23]: 51.5% | viability, T/C [24]: 46.8% | viability, T/C [25]: 91.3% | viability, T/C [26]: 80.8% | viability, T/C [27]: 66.7% | viability, T/C [28]: 57% | viability, T/C [29]: 48.9% | viability, T/C [30]: 46.1% | viability, T/C [31]: 80.9% | viability, T/C [32]: 73.7% | viability, T/C [33]: 65.5% | viability, T/C [34]: 55.6% | viability, T/C [35]: 51.6% | viability, T/C [36]: 41.1%

CCCS(=O)(=O)Nc1ccc(F)c(C(=O)c2c[nH]c3ncc(-c4ccc(Cl)cc4)cc23)c1F + Nc1ccc(C#CCN(C(=O)Cc2ncc(C(F)(F)F)cc2C(F)(F)F)c2ccc(F)cc2)nn1
pIC50 (second compound 0.0316 µM): 5.10 | pIC50 (second compound 0.1 µM): 5.10 | pIC50 (second compound 0.316 µM): 5.05 | pIC50 (second compound 1 µM): 5.07 | pIC50 (second compound 3.16 µM): 5.07 | pIC50 (second compound 10 µM): 5.08 | viability, T/C [1]: 66% | viability, T/C [2]: 72.5% | viability, T/C [3]: 94.9% | viability, T/C [4]: 90.5% | viability, T/C [5]: 78.2% | viability, T/C [6]: 42.5% | viability, T/C [7]: 79.8% | viability, T/C [8]: 64.4% | viability, T/C [9]: 92.4% | viability, T/C [10]: 98.2% | viability, T/C [11]: 82% | viability, T/C [12]: 41.9% | viability, T/C [13]: 65.4% | viability, T/C [14]: 77% | viability, T/C [15]: 93.4% | viability, T/C [16]: 103% | viability, T/C [17]: 88.7% | viability, T/C [18]: 45.9% | viability, T/C [19]: 52.6% | viability, T/C [20]: 68.7% | viability, T/C [21]: 95.9% | viability, T/C [22]: 107% | viability, T/C [23]: 81% | viability, T/C [24]: 44.6% | viability, T/C [25]: 61.6% | viability, T/C [26]: 66.6% | viability, T/C [27]: 103% | viability, T/C [28]: 99.6% | viability, T/C [29]: 91.5% | viability, T/C [30]: 44.3% | viability, T/C [31]: 60.9% | viability, T/C [32]: 69.3% | viability, T/C [33]: 89.4% | viability, T/C [34]: 104% | viability, T/C [35]: 85.6% | viability, T/C [36]: 43.8%
